# In the Kinase Knowledgebase extract (Sharma et al. 2016):
# Molecular target: EGFR (human) (UniProt P00533)
# Details: huvec
# Chain of EGFR (human) (P00533 whole entry, looked up): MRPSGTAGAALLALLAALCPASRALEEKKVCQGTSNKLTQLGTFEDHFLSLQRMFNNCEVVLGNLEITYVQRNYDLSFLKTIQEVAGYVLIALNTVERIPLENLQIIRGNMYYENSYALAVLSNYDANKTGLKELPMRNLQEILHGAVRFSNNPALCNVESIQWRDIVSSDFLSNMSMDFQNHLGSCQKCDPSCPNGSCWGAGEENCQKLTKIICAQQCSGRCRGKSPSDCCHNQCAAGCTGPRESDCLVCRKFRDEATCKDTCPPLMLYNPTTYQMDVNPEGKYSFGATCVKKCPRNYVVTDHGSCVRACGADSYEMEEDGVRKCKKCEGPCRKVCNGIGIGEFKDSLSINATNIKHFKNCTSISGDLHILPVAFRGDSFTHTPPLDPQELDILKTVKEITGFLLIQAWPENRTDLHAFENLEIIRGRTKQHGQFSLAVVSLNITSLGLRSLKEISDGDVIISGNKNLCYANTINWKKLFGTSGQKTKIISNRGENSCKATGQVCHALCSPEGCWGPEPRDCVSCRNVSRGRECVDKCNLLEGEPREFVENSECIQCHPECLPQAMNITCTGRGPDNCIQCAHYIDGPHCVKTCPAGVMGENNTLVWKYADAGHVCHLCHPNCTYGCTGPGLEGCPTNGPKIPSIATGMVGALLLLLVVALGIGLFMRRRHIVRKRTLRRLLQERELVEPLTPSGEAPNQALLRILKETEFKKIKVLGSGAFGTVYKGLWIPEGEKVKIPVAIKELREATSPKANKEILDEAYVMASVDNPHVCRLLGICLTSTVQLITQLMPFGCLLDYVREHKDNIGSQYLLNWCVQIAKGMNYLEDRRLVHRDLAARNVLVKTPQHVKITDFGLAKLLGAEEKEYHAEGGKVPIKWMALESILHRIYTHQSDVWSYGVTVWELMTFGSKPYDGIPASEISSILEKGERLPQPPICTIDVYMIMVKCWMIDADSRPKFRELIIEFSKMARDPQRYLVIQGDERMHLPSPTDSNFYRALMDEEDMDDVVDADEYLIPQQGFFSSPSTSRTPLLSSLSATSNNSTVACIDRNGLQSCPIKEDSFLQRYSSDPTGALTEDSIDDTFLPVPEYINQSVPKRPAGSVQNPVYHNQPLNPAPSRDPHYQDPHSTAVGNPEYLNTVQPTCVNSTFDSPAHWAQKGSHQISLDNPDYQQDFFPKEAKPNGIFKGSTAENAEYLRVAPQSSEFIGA
row,IC50 [µM],Compound
1,0.4,COc1cc2c(Nc3c(F)cc(Br)cc3F)ncnc2cc1OCC1CCNCC1
2,0.07,COc1cc2c(Nc3cc(O)c(Cl)cc3F)ncnc2cc1OCC1CCN(C)CC1
3,0.2,COc1cc2c(Nc3ccc(Cl)cc3F)ncnc2cc1OCCC1CCN(C)CC1
4,0.4,COc1cc2c(Nc3ccc(C)cc3F)ncnc2cc1OCC1CCN(C)CC1
5,0.09,COc1cc2c(Nc3ccc(Br)cc3F)ncnc2cc1OCCCN1CCN(C)CC1
6,0.1,COc1cc2c(Nc3ccc(Cl)cc3F)ncnc2cc1OCC1CCNCC1
7,0.6,COc1cc2c(Nc3c(F)cc(Cl)cc3F)ncnc2cc1OCC1CCNCC1
8,0.09,COc1cc2c(Nc3ccc(Br)cc3F)ncnc2cc1OC/C=C/CN1CCCC1
9,0.45,COc1cc2c(Nc3ccc(C)cc3F)ncnc2cc1OCC1CCNCC1
10,0.1,COc1cc2c(Nc3ccc(Br)cc3F)ncnc2cc1OCC1CCNCC1
11,0.2,COc1cc2c(Nc3cc(O)c(C)cc3F)ncnc2cc1OCC1CCN(C)CC1
12,0.15,COc1cc2c(Nc3ccc(Cl)cc3F)ncnc2cc1OC[C@@H]1CCCN(C)C1
13,0.1,COc1cc2c(Nc3ccc(Cl)cc3F)ncnc2cc1OCCCN1CCN(C)CC1
14,1.4,COc1cc2c(Nc3ccc(C#N)cc3F)ncnc2cc1OC/C=C/CN1CCCC1
15,0.08,COc1cc2c(Nc3ccc(Cl)cc3F)ncnc2cc1OC/C=C/CN1CCCC1
16,0.4,COc1cc2c(Nc3c(F)cc(Br)cc3F)ncnc2cc1OCC1CCN(C)CC1
